Here are results for 11 compounds from US9918988B2, “Ammonium derivatives for the treatment of hepatitis C” (priority 2013, dated 2018).

This assay relates to HCV pseudoparticles (genotype 1a HCV E1 and E2 envelope, H77C isolate). The assay is described as follows: HCV pseudoparticle infection assay (genotype 1a, luciferase reporter, Huh7 cells). The assay is classed as cell-based. To be noted: Hepatitis C virus, Huh-7, 48 h, read-out: EC50 (1a, nM), HCV genotype 1a pseudoparticles, Huh7 cells, luciferase 2 days after infection.

Read-outs that look alike come from different tables or passages of the source.

Turning to `C[N+](C)(C)CCNC(=O)c1ccc2cc1OCCCCCCCCOc1ccc(cc1)CNc1nc(nc(OCC(F)(F)F)n1)N2` [Compound 2001], under “class symbol”, the EC50 (in general, the concentration that produces a half-maximal response) was 0.01 to 10 nM.
As for `C[N+](C)(C)CCCC[C@H](NC(=O)c1ccc(Nc2nc(NC3(c4ccc(Cl)cc4)CC3)nc(OCC(F)(F)F)n2)cc1)C(=O)O` [Compound 1005, (S)-5-carboxy-5-(4-(4-(1-(4-chlorophenyl)cyclopropylamino)-6-(2,2,2-trifluoroethoxy)-1,3,5-triazin-2-ylamino)benzamido)-N,N,N-trimethylpentan-1-aminium], the half-maximal effective concentration (EC50) (class symbol) was 0.01 to 10 nM.
For the compound `C[N+](C)(C)CCNC(=O)c1ccc(Nc2nc(NC3(c4ccc(Cl)cc4)CC3)nc(OCC(F)(F)F)n2)cc1` [Compound 1001, 2-(4-(4-(1-(4-chlorophenyl)cyclopropylamino)-6-(2,2,2-trifluoroethoxy)-1,3,5-triazin-2-ylamino)benzamido)-N,N,N-trimethylethanaminium], the EC50 (class symbol) was in the range of 0.01 to 10 nM.
Still for that read-out and setting: under `C[N+](C)(C)CCCNC(=O)c1ccc2cc1OCCCCCCOc1ccc(cc1)CNc1nc(nc(OCC(F)(F)F)n1)N2` [Compound 3002] stands 10 to 1000 nM; under `C[N+](C)(C)CCCNC(=O)c1ccc(Nc2nc(NC3(c4ccc(Cl)cc4)CC3)nc(OCC(F)(F)F)n2)cc1` [Compound 1004, 3-(4-(4-(1-(4-chlorophenyl)cyclopropylamino)-6-(2,2,2-trifluoroethoxy)-1,3,5-triazin-2-ylamino)benzamido)-N,N,N-trimethylpropan-1-aminium], 0.01 to 10 nM.
On the same count and under the same terms, under `C[N+](C)(C)CCNC(=O)c1ccc2cc1OCCCCCCOc1ccc(cc1)CNc1nc(nc(OCC(F)(F)F)n1)N2` [Compound 3001] stands 0.01 to 10 nM.
With `C[N+](C)(C)CCNC(=O)c1ccc2cc1OCCOCCOCCOc1ccc(cc1)CNc1nc(nc(OCC(F)(F)F)n1)N2` [Compound 4001], under “class symbol”, the 50% effective concentration (EC50) was 0.01 to 10 nM.
On to `C[N+](C)(C)CC(=O)NNC(=O)c1ccc(Nc2nc(NC3(c4ccc(Cl)cc4)CC3)nc(OCC(F)(F)F)n2)cc1` [Compound 1003, 2-(2-(4-(4-(1-(4-chlorophenyl)cyclopropylamino)-6-(2,2,2-trifluoroethoxy)-1,3,5-triazin-2-ylamino)benzoyl)hydrazinyl)-N,N,N-trimethyl-2-oxoethanaminium], for which the EC50 by setting is: (class symbol) 10 to 1000 nM; (numeric value) 64.1 nM.
Consider `[2H]C([2H])(Oc1nc(Nc2ccc(C(=O)NCC[N+](C)(C)C)cc2)nc(NC2(c3ccc(Cl)cc3)CC2)n1)C(F)(F)F` [Compound 1002, 2-(4-(4-(1-(4-chlorophenyl)cyclopropylamino)-6-(2,2,2-trifluoroethoxy-D2)-1,3,5-triazin-2-ylamino)benzamido)-N,N,N-trimethylethanaminium], for which the EC50 (class symbol) lay in the range of 0.01 to 10 nM.
As for `CC(C)(CNC(=O)c1ccc2cc1OCCCCCCOc1ccc(cc1)CNc1nc(nc(OCC(F)(F)F)n1)N2)C[N+](C)(C)C` [Compound 3003], the EC50 reads like this: (class symbol) 0.01 to 10 nM; (numeric value) 7.51 nM.
On to `CC(C)(CNC(=O)c1ccc(Nc2nc(NC3(c4ccc(Cl)cc4)CC3)nc(OCC(F)(F)F)n2)cc1)C[N+](C)(C)C` [Compound 1006, 3-(4-(4-(1-(4-chlorophenyl)cyclopropylamino)-6-(2,2,2-trifluoroethoxy)-1,3,5-triazin-2-ylamino)benzamido)-N,N,N,2,2-pentamethylpropan-1-aminium], for which the EC50 by setting is: (class symbol) 0.01 to 10 nM; (numeric value) 0.115 nM.
